Test: Effect of solvent on the stability of the solution (purity at various pH values and temperature)
Assay type: physicochemical
Details: 7% solution

For `CCN(CC)CCOC(=O)c1ccccc1OC(C)=O.Cl`, the “Purity(%) at day 0” value (solvent 15% ethanol, pH 1.0, day 0) was 99.1 ± 0.2%, the “Purity(%) at day 14 (5° C.)” value (solvent 15% ethanol, pH 1.0, day 14, 5° C.) was 92.1 ± 0.3% and the “Purity(%) at day 14 (25° C.)” value (solvent 15% ethanol, pH 1.0, day 14, 25° C.) was 62.7 ± 0.3%. The “Purity(%) at day 14 (40° C.)” value (solvent 15% ethanol, pH 1.0, day 14, 40° C.) was 0%, the “Purity (%) at day 14 (60° C.)” value (solvent 15% ethanol, pH 1.0, day 14, 60° C.) was 0% and the “Purity(%) at day 0” value (solvent 15% ethanol, pH 2.0, day 0) was 99.4 ± 0.2%. The “Purity(%) at day 14 (5° C.)” value (solvent 15% ethanol, pH 2.0, day 14, 5° C.) was 96.5 ± 0.2%, the “Purity(%) at day 14 (25° C.)” value (solvent 15% ethanol, pH 2.0, day 14, 25° C.) was 83.8 ± 0.3% and the “Purity(%) at day 14 (40° C.)” value (solvent 15% ethanol, pH 2.0, day 14, 40° C.) was 0%. The “Purity (%) at day 14 (60° C.)” value (solvent 15% ethanol, pH 2.0, day 14, 60° C.) was 0%, the “Purity(%) at day 0” value (solvent 15% ethanol, pH 3.0, day 0) was 99.5 ± 0.1% and the “Purity(%) at day 14 (25° C.)” value (solvent 15% ethanol, pH 3.0, day 14, 25° C.) was 88.8 ± 0.2%. The “Purity(%) at day 14 (40° C.)” value (solvent 15% ethanol, pH 3.0, day 14, 40° C.) was 2.9 ± 0.3%, the “Purity (%) at day 14 (60° C.)” value (solvent 15% ethanol, pH 3.0, day 14, 60° C.) was 0% and the “Purity(%) at day 0” value (solvent 15% ethanol, pH 3.7, day 0) was 99.6 ± 0.1%. The “Purity(%) at day 14 (25° C.)” value (solvent 15% ethanol, pH 3.7, day 14, 25° C.) was 96.2 ± 0.3%, the “Purity(%) at day 14 (40° C.)” value (solvent 15% ethanol, pH 3.7, day 14, 40° C.) was 15.2 ± 0.3% and the “Purity (%) at day 14 (60° C.)” value (solvent 15% ethanol, pH 3.7, day 14, 60° C.) was 0%. The “Purity(%) at day 0” value (solvent 15% ethanol, pH 4.0, day 0) was 99.7 ± 0.2%, the “Purity(%) at day 14 (25° C.)” value (solvent 15% ethanol, pH 4.0, day 14, 25° C.) was 96.7 ± 0.2% and the “Purity(%) at day 14 (40° C.)” value (solvent 15% ethanol, pH 4.0, day 14, 40° C.) was 15.7 ± 0.3%. For the same compound, the “Purity (%) at day 14 (60° C.)” value (solvent 15% ethanol, pH 4.0, day 14, 60° C.) was 0%, the “Purity(%) at day 0” value (solvent 15% ethanol, pH 4.3, day 0) was 99.7 ± 0.1% and the “Purity(%) at day 14 (25° C.)” value (solvent 15% ethanol, pH 4.3, day 14, 25° C.) was 96.7 ± 0.1%. The “Purity(%) at day 14 (40° C.)” value (solvent 15% ethanol, pH 4.3, day 14, 40° C.) was 13.6 ± 0.3%, the “Purity (%) at day 14 (60° C.)” value (solvent 15% ethanol, pH 4.3, day 14, 60° C.) was 0% and the “Purity(%) at day 0” value (solvent 15% ethanol, pH 4.6, day 0) was 99.6 ± 0.2%. For the same compound, the “Purity(%) at day 14 (25° C.)” value (solvent 15% ethanol, pH 4.6, day 14, 25° C.) was 96.5 ± 0.2%, the “Purity(%) at day 14 (40° C.)” value (solvent 15% ethanol, pH 4.6, day 14, 40° C.) was 4.1 ± 0.3% and the “Purity (%) at day 14 (60° C.)” value (solvent 15% ethanol, pH 4.6, day 14, 60° C.) was 0%. The “Purity(%) at day 0” value (solvent 15% ethanol, pH 5.0, day 0) was 99.5 ± 0.2%, the “Purity(%) at day 14 (5° C.)” value (solvent 15% ethanol, pH 5.0, day 14, 5° C.) was 97.4 ± 0.2% and the “Purity(%) at day 14 (25° C.)” value (solvent 15% ethanol, pH 5.0, day 14, 25° C.) was 92.9 ± 0.2%. For the same compound, the “Purity(%) at day 14 (40° C.)” value (solvent 15% ethanol, pH 5.0, day 14, 40° C.) was 1.3 ± 0.3%, the “Purity (%) at day 14 (60° C.)” value (solvent 15% ethanol, pH 5.0, day 14, 60° C.) was 0% and the “Purity(%) at day 0” value (solvent 15% ethanol, pH 6.0, day 0) was 99.4 ± 0.2%. The “Purity(%) at day 14 (5° C.)” value (solvent 15% ethanol, pH 6.0, day 14, 5° C.) was 92.3 ± 0.3%, the “Purity(%) at day 14 (25° C.)” value (solvent 15% ethanol, pH 6.0, day 14, 25° C.) was 84.9 ± 0.3% and the “Purity(%) at day 14 (40° C.)” value (solvent 15% ethanol, pH 6.0, day 14, 40° C.) was 0%. The “Purity (%) at day 14 (60° C.)” value (solvent 15% ethanol, pH 6.0, day 14, 60° C.) was 0%, the “Purity(%) at day 0” value (solvent 15% ethanol, pH 7.0, day 0) was 99.2 ± 0.1% and the “Purity(%) at day 14 (5° C.)” value (solvent 15% ethanol, pH 7.0, day 14, 5° C.) was 87.9 ± 0.3%. The “Purity(%) at day 14 (25° C.)” value (solvent 15% ethanol, pH 7.0, day 14, 25° C.) was 60.2 ± 0.3%, the “Purity(%) at day 14 (40° C.)” value (solvent 15% ethanol, pH 7.0, day 14, 40° C.) was 0% and the “Purity (%) at day 14 (60° C.)” value (solvent 15% ethanol, pH 7.0, day 14, 60° C.) was 0%. For the same compound, the “Purity(%) at day 0” value (solvent 15% ethanol, pH 8.0, day 0) was 99.1 ± 0.2%, the “Purity(%) at day 14 (5° C.)” value (solvent 15% ethanol, pH 8.0, day 14, 5° C.) was 58.7 ± 0.4% and the “Purity(%) at day 14 (25° C.)” value (solvent 15% ethanol, pH 8.0, day 14, 25° C.) was 22.7 ± 0.3%. For the same compound, the “Purity(%) at day 14 (40° C.)” value (solvent 15% ethanol, pH 8.0, day 14, 40° C.) was 0%, the “Purity (%) at day 14 (60° C.)” value (solvent 15% ethanol, pH 8.0, day 14, 60° C.) was 0% and the “Purity(%) at day 0” value (solvent 25% ethanol, pH 1.0, day 0) was 99.1 ± 0.3%. The “Purity(%) at day 14 (5° C.)” value (solvent 25% ethanol, pH 1.0, day 14, 5° C.) was 92.3 ± 0.3%, the “Purity(%) at day 14 (25° C.)” value (solvent 25% ethanol, pH 1.0, day 14, 25° C.) was 63.5 ± 0.3% and the “Purity(%) at day 14 (40° C.)” value (solvent 25% ethanol, pH 1.0, day 14, 40° C.) was 0%. For the same compound, the “Purity (%) at day 14 (60° C.)” value (solvent 25% ethanol, pH 1.0, day 14, 60° C.) was 0%, the “Purity(%) at day 0” value (solvent 25% ethanol, pH 2.0, day 0) was 99.4 ± 0.3% and the “Purity(%) at day 14 (5° C.)” value (solvent 25% ethanol, pH 2.0, day 14, 5° C.) was 96.9 ± 0.3%. For the same compound, the “Purity(%) at day 14 (25° C.)” value (solvent 25% ethanol, pH 2.0, day 14, 25° C.) was 84.2 ± 0.3%, the “Purity(%) at day 14 (40° C.)” value (solvent 25% ethanol, pH 2.0, day 14, 40° C.) was 0% and the “Purity (%) at day 14 (60° C.)” value (solvent 25% ethanol, pH 2.0, day 14, 60° C.) was 0%. The “Purity(%) at day 0” value (solvent 25% ethanol, pH 3.0, day 0) was 99.5 ± 0.2%, the “Purity(%) at day 14 (25° C.)” value (solvent 25% ethanol, pH 3.0, day 14, 25° C.) was 88.9 ± 0.2% and the “Purity(%) at day 14 (40° C.)” value (solvent 25% ethanol, pH 3.0, day 14, 40° C.) was 2.9 ± 0.2%. The “Purity (%) at day 14 (60° C.)” value (solvent 25% ethanol, pH 3.0, day 14, 60° C.) was 0%, the “Purity(%) at day 0” value (solvent 25% ethanol, pH 3.7, day 0) was 99.6 ± 0.1% and the “Purity(%) at day 14 (5° C.)” value (solvent 25% ethanol, pH 3.7, day 14, 5° C.) was 99.1 ± 0.2%. For the same compound, the “Purity(%) at day 14 (25° C.)” value (solvent 25% ethanol, pH 3.7, day 14, 25° C.) was 96.3 ± 0.2%, the “Purity(%) at day 14 (40° C.)” value (solvent 25% ethanol, pH 3.7, day 14, 40° C.) was 15.1 ± 0.3% and the “Purity (%) at day 14 (60° C.)” value (solvent 25% ethanol, pH 3.7, day 14, 60° C.) was 0%. The “Purity(%) at day 0” value (solvent 25% ethanol, pH 4.0, day 0) was 99.8 ± 0.1%, the “Purity(%) at day 14 (5° C.)” value (solvent 25% ethanol, pH 4.0, day 14, 5° C.) was 99.1 ± 0.1% and the “Purity(%) at day 14 (25° C.)” value (solvent 25% ethanol, pH 4.0, day 14, 25° C.) was 96.9 ± 0.1%. The “Purity(%) at day 14 (40° C.)” value (solvent 25% ethanol, pH 4.0, day 14, 40° C.) was 15.2 ± 0.3%, the “Purity (%) at day 14 (60° C.)” value (solvent 25% ethanol, pH 4.0, day 14, 60° C.) was 0% and the “Purity(%) at day 0” value (solvent 25% ethanol, pH 4.3, day 0) was 99.7 ± 0.2%. For the same compound, the “Purity(%) at day 14 (5° C.)” value (solvent 25% ethanol, pH 4.3, day 14, 5° C.) was 99.1 ± 0.2%, the “Purity(%) at day 14 (25° C.)” value (solvent 25% ethanol, pH 4.3, day 14, 25° C.) was 96.8 ± 0.2% and the “Purity(%) at day 14 (40° C.)” value (solvent 25% ethanol, pH 4.3, day 14, 40° C.) was 13.8 ± 0.3%. For the same compound, the “Purity (%) at day 14 (60° C.)” value (solvent 25% ethanol, pH 4.3, day 14, 60° C.) was 0%, the “Purity(%) at day 0” value (solvent 25% ethanol, pH 4.6, day 0) was 99.7 ± 0.2% and the “Purity(%) at day 14 (25° C.)” value (solvent 25% ethanol, pH 4.6, day 14, 25° C.) was 96.5 ± 0.2%. The “Purity(%) at day 14 (40° C.)” value (solvent 25% ethanol, pH 4.6, day 14, 40° C.) was 4.2 ± 0.1%, the “Purity (%) at day 14 (60° C.)” value (solvent 25% ethanol, pH 4.6, day 14, 60° C.) was 0% and the “Purity(%) at day 0” value (solvent 25% ethanol, pH 5.0, day 0) was 99.6 ± 0.2%. The “Purity(%) at day 14 (25° C.)” value (solvent 25% ethanol, pH 5.0, day 14, 25° C.) was 92.8 ± 0.2%, the “Purity(%) at day 14 (40° C.)” value (solvent 25% ethanol, pH 5.0, day 14, 40° C.) was 1.6 ± 0.1% and the “Purity (%) at day 14 (60° C.)” value (solvent 25% ethanol, pH 5.0, day 14, 60° C.) was 0%. For the same compound, the “Purity(%) at day 0” value (solvent 25% ethanol, pH 6.0, day 0) was 99.5 ± 0.3%, the “Purity(%) at day 14 (5° C.)” value (solvent 25% ethanol, pH 6.0, day 14, 5° C.) was 92.7 ± 0.2% and the “Purity(%) at day 14 (25° C.)” value (solvent 25% ethanol, pH 6.0, day 14, 25° C.) was 85.0 ± 0.3%. The “Purity(%) at day 14 (40° C.)” value (solvent 25% ethanol, pH 6.0, day 14, 40° C.) was 0%, the “Purity (%) at day 14 (60° C.)” value (solvent 25% ethanol, pH 6.0, day 14, 60° C.) was 0% and the “Purity(%) at day 0” value (solvent 25% ethanol, pH 7.0, day 0) was 99.4 ± 0.3%. For the same compound, the “Purity(%) at day 14 (5° C.)” value (solvent 25% ethanol, pH 7.0, day 14, 5° C.) was 88.0 ± 0.3%, the “Purity(%) at day 14 (25° C.)” value (solvent 25% ethanol, pH 7.0, day 14, 25° C.) was 61.2 ± 0.3% and the “Purity(%) at day 14 (40° C.)” value (solvent 25% ethanol, pH 7.0, day 14, 40° C.) was 0%. For the same compound, the “Purity (%) at day 14 (60° C.)” value (solvent 25% ethanol, pH 7.0, day 14, 60° C.) was 0%, the “Purity(%) at day 0” value (solvent 25% ethanol, pH 8.0, day 0) was 99.1 ± 0.3% and the “Purity(%) at day 14 (5° C.)” value (solvent 25% ethanol, pH 8.0, day 14, 5° C.) was 59.8 ± 0.3%. For the same compound, the “Purity(%) at day 14 (25° C.)” value (solvent 25% ethanol, pH 8.0, day 14, 25° C.) was 23.1 ± 0.3% and the “Purity(%) at day 14 (40° C.)” value (solvent 25% ethanol, pH 8.0, day 14, 40° C.) was 0%.
